Experimental data published in patent US10316056B2, “Chemical compounds and use thereof for improving muscular quality” (BIOPHYTIS, priority 2014, dated 2019).

test system: myostatin gene expression in C2C12 cells; assay: Inhibition of myostatin expression in C2C12 cells (qPCR); assay type: cell-based; details: Mus musculus, percentage myostatin gene expression in cells in contact with the compounds related to control cells, C2C12, 6 h
Experimental: After several experiments in which the C2C12 cells differentiated into myotubes were incubated in the presence of IGF-1 or 20E for 2 h 30 or 6 h, two screening tests were developed. Thus, the phosphorylation of the S6 protein kinase and the expression of the myostatin gene were studied in order to determine their modulation by a growth hormone or an ecdysone and to characterize these modulations from a statistical point of view. The C2C12 myoblast cells (ATCC CRL-1772) are seeded into 24-well plates at a density of 30 000 cells per well and cultured in a DMEM medium containing glucose in a proportion of 4.5 g/l and supplemented with fetal calf serum (10%) and with antibiotics (penicillin and streptomycin). Forty-eight hours later, the myoblasts are induced to differentiate by partial serum depletion (2% instead of 10%) for 5 days. The cells are then placed in a medium which is glucose-depleted (DMEM containing 1 g/l of glucose) and serum-free in the presence of the test molecules or of the references (100 ng/ml IGF-1 or 10 μ[…]) for 6 h. At the end of the experiment, the messenger RNAs (mRNAs) are extracted using the conventional methodology based on phenol and chloroform. Briefly, the cells are lysed in a Trizol solution (Sigma T9424) containing a strong acid and phenol. The mRNAs are separated from the proteins by addition of chloroform and then centrifugation. They are then precipitated from isopropanol and then suspended at a concentration of 1 μg/μl in an […] ultrapure water. 1 μg of mRNA is then converted by reverse transcription into complementary DNA by the AMV enzyme in the presence of a primer and of a mixture of nucleotides according to the protocol given by the supplier (Applied Biosystems 4368814). […] The qPCRs are carried out on a 7900HT Fast real-Time PCR detection system (Applied Biosystems). The programming conditions are standard and consist of 1 cycle at 95° C. for 15 min, followed by 40 cycles at 95° C. for 15 s and at 60° C. for 1 min and the program ends with a melt curve step between 60° C. and 95° C. […] Fluorescent probes bind to the double-stranded DNA and are fluorescent only once bound to the DNA. A fluorescence threshold is established by the machine's program. When the amount of DNA allows the fluorescent probe to exceed this threshold, a PCR cycle number, called “Ct” for “Cycle Threshold”, is obtained. It is this value which forms the basis of the calculations to quantify the DNA relatively. A ratio R is established between the amount of starting DNA of a sample and that of a control, which has not undergone treatment (i.e. […] R=2^-ΔΔCt).

Row | SMILES | mrna remaining at 10 µM [%]
1 | COCCO/N=C(/C)[C@H]1CC[C@@]2(O)C3=CC(=O)[C@@H]4C[C@@H](O)[C@@H](O)C[C@]4(C)C3CC[C@]12C (stereo partly drawn) [Compound 29, (2S,3R,5R,10R,13R,14S,17S)-2,3,14-trihydroxy-17-(N-(2-methoxyethoxy)-C-methylcarbonimidoyl)-10,13-dimethyl-2,3,4,5,9,11,12,15,16,17-decahydro-1H-cyclopenta[a]phenanthren-6-one] | < 70
2 | CO/N=C1\C=C2C(CC[C@]3(C)[C@@H](/C(CN4CCOCC4)=N\OC)CC[C@@]23O)[C@@]2(C)C[C@H](O)[C@H](O)C[C@@H]12 (stereo partly drawn) [Compound 101, (2S,3R,5R,6E,10R,13R,14S,17S)-6-methoxyimino-17-(N-methoxy-C-(morpholinomethyl)carbonimidoyl)-10,13-dimethyl-2,3,4,5,9,11,12,15,16,17-decahydro-1H-cyclopenta[a]phenanthrene-2,3,14-triol] | < 70
3 | COC(CN(C(=O)c1ccco1)C(C)[C@H]1CC[C@@]2(O)C3=CC(=O)[C@@H]4C[C@@H](O)[C@@H](O)C[C@]4(C)C3CC[C@]12C)OC (stereo partly drawn) [Compound 60, N-(2,2-dimethoxyethyl)-N-[1-[(2S,3R,5R,10R,13R,14S,17S)-2,3,14-trihydroxy-10,13-dimethyl-6-oxo-2,3,4,5,9,11,12,15,16,17-decahydro-1H-cyclopenta[a]phenanthren-17-yl]ethyl]furan-2-carboxamide] | 71 to 85
4 | COC(CN(C(=O)C1CC1)C(C)[C@H]1CC[C@@]2(O)C3=CC(=O)[C@@H]4C[C@@H](O)[C@@H](O)C[C@]4(C)C3CC[C@]12C)OC (stereo partly drawn) [Compound 65, N-(2,2-dimethoxyethyl)-N-[1-[(2S,3R,5R,10R,13R,14S,17S)-2,3,14-trihydroxy-10,13-dimethyl-6-oxo-2,3,4,5,9,11,12,15,16,17-decahydro-1H-cyclopenta[a]phenanthren-17-yl]ethyl]cyclopropanecarboxamide] | < 70
5 | C[C@@H]1CN(CC(=O)[C@H]2CC[C@@]3(O)C4=CC(=O)[C@@H]5C[C@@H](O)[C@@H](O)C[C@]5(C)C4CC[C@]23C)C[C@H](C)O1 (stereo partly drawn) [Compound 83, (2S,3R,5R,10R,13R,14S,17S)-17-[2-[(2S,6R)-2,6-dimethylmorpholin-4-yl]acetyl]-2,3,14-trihydroxy-10,13-dimethyl-2,3,4,5,9,11,12,15,16,17-decahydro-1H-cyclopenta[a]phenanthren-6-one] | 71 to 85
6 | CCON=C(C)[C@H]1CCC2C3=CC(=O)[C@@H]4C[C@@H](O)[C@@H](O)C[C@]4(C)C3CC[C@@]21C (stereo partly drawn) [Compound 5, (2S,3R,5R,10R,13S,17S)-17-(N-ethoxy-C-methylcarbonimidoyl)-2,3-dihydroxy-10,13-dimethyl-1,2,3,4,5,9,11,12,14,15,16,17-dodecahydrocyclopenta[a]phenanthren-6-one] | < 70
7 | C[C@]12C[C@H](O)[C@H](O)C[C@H]1C(=O)C=C1C2CC[C@]2(C)[C@@H](C(O)CN3CCC(CCO)CC3)CC[C@@]12O (stereo partly drawn) [Compound 99, (2S,3R,5R,10R,13R,14S,17S)-2,3,14-trihydroxy-17-[1-hydroxy-2-[4-(2-hydroxyethyl)-1-piperidyl]ethyl]-10,13-dimethyl-2,3,4,5,9,11,12,15,16,17-decahydro-1H-cyclopenta[a]phenanthren-6-one] | < 70
8 | COCC(=O)N(C1CC1)C(C)[C@H]1CC[C@@]2(O)C3=CC(=O)[C@@H]4C[C@@H](O)[C@@H](O)C[C@]4(C)C3CC[C@]12C (stereo partly drawn) [Compound 54, N-cyclopropyl-2-methoxy-N-[1-[(2S,3R,5R,10R,13R,14S,17S)-2,3,14-trihydroxy-10,13-dimethyl-6-oxo-2,3,4,5,9,11,12,15,16,17-decahydro-1H-cyclopenta[a]phenanthren-17-yl]ethyl]acetacetamide] | < 70
9 | COCCN(C(=O)N1CCOCC1)C(C)[C@H]1CC[C@@]2(O)C3=CC(=O)[C@@H]4C[C@@H](O)[C@@H](O)C[C@]4(C)C3CC[C@]12C (stereo partly drawn) [Compound 57, N-(2-methoxyethyl)-N-[1-[(2S,3R,5R,10R,13R,14S,17S)-2,3,14-trihydroxy-10,13-dimethyl-6-oxo-2,3,4,5,9,11,12,15,16,17-decahydro-1H-cyclopenta[a]phenanthren-17-yl]ethyl]morpholine-4-carboxamide] | 71 to 85
10 | COCCN(C(=O)C(C)C)C(C)[C@H]1CC[C@@]2(O)C3=CC(=O)[C@@H]4C[C@@H](O)[C@@H](O)C[C@]4(C)C3CC[C@]12C (stereo partly drawn) [Compound 75, N-(2-methoxyethyl)-2-methyl-N-[1-[(2S,3R,5R,10R,13R,14S,17S)-2,3,14-trihydroxy-10,13-dimethyl-6-oxo-2,3,4,5,9,11,12,15,16,17-decahydro-1H-cyclopenta[a]phenanthren-17-yl]ethyl]propanamide] | < 70
11 | CC(=NOCC(=O)O)[C@H]1CCC2C3=CC(=O)[C@@H]4C[C@@H](O)[C@@H](O)C[C@]4(C)C3CC[C@@]21C (stereo partly drawn) [Compound 4, 2-[1-[(2S,3R,5R,10R,13S,17S)-2,3-dihydroxy-10,13-dimethyl-6-oxo-1,2,3,4,5,9,11,12,14,15,16,17-dodecahydrocyclopenta[a]phenanthren-17-yl]ethylideneamino]oxyacetic acid] | < 70
12 | CC(C)=CCO/N=C(/C)[C@H]1CC[C@@]2(O)C3=CC(=O)[C@@H]4C[C@@H](O)[C@@H](O)C[C@]4(C)C3CC[C@]12C (stereo partly drawn) [Compound 30, (2S,3R,5R,10R,13R,14S,17S)-2,3,14-trihydroxy-10,13-dimethyl-17-(C-methyl-N-(3-methylbut-2-enoxy)carbonimidoyl)-2,3,4,5,9,11,12,15,16,17-decahydro-1H-cyclopenta[a]phenanthren-6-one] | 71 to 85
13 | CO/N=C1/C=C2C3=CC[C@H](C(C)=NO)[C@@]3(C)CCC2[C@@]2(C)C[C@H](O)[C@H](O)C[C@@H]12 (stereo partly drawn) [Compound 7, 1-[(2S,3R,5R,6Z,10R,13R,17S)-2,3-dihydroxy-6-methoxyimino-10,13-dimethyl-1,2,3,4,5,9,11,12,16,17-decahydrocyclopenta[a]phenanthren-17-yl]ethanone oxime] | < 70
14 | COCCN(C(=O)c1cccs1)C(C)[C@H]1CC[C@@]2(O)C3=CC(=O)[C@@H]4C[C@@H](O)[C@@H](O)C[C@]4(C)C3CC[C@]12C (stereo partly drawn) [Compound 53, N-(2-methoxyethyl)-N-[1-[(2S,3R,5R,10R,13R,14S,17S)-2,3,14-trihydroxy-10,13-dimethyl-6-oxo-2,3,4,5,9,11,12,15,16,17-decahydro-1H-cyclopenta[a]phenanthren-17-yl]ethyl]thiophene-2-carboxamide] | < 70
15 | COC(CN(C(=O)c1cccs1)C(C)[C@H]1CC[C@@]2(O)C3=CC(=O)[C@@H]4C[C@@H](O)[C@@H](O)C[C@]4(C)C3CC[C@]12C)OC (stereo partly drawn) [Compound 64, N-(2,2-dimethoxyethyl)-N-[1-[(2S,3R,5R,10R,13R,14S,17S)-2,3,14-trihydroxy-10,13-dimethyl-6-oxo-2,3,4,5,9,11,12,15,16,17-decahydro-1H-cyclopenta[a]phenanthren-17-yl]ethyl]thiophene-2-carboxamide] | < 70
16 | CO/N=C(/C)[C@H]1CC[C@@]2(O)C3=CC(=O)[C@@H]4C[C@@H](O)[C@@H](O)C[C@]4(C)C3CC[C@]12C (stereo partly drawn) [Compound 25, (2S,3R,5R,10R,13R,14S,17S)-17-(N-methoxy-C-methylcarbonimidoyl)-2,3,14-trihydroxy-10,13-dimethyl-2,3,4,5,9,11,12,15,16,17-decahydro-1H-cyclopenta[a]phenanthren-6-one] | < 70
17 | CC([C@H]1CC[C@@]2(O)C3=CC(=O)[C@@H]4C[C@@H](O)[C@@H](O)C[C@]4(C)C3CC[C@]12C)N(Cc1cccnc1)C(=O)c1ccco1 (stereo partly drawn) [Compound 73, N-(3-pyridylmethyl)-N-[1-[(2S,3R,5R,10R,13R,14S,17S)-2,3,14-trihydroxy-10,13-dimethyl-6-oxo-2,3,4,5,9,11,12,15,16,17-decahydro-1H-cyclopenta(a)phenanthren-17-yl]ethyl]furan-2-carboxamide] | 71 to 85
18 | CC([C@H]1CC[C@@]2(O)C3=CC(=O)[C@@H]4C[C@@H](O)[C@@H](O)C[C@]4(C)C3CC[C@]12C)N(CC(F)F)C(=O)C1CC1 (stereo partly drawn) [Compound 68, N-(2,2-difluoroethyl)-N-[1-[(2S,3R,5R,10R,13R,14S,17S)-2,3,14-trihydroxy-10,13-dimethyl-6-oxo-2,3,4,5,9,11,12,15,16,17-decahydro-1H-cyclopenta[a]phenanthren-17-yl]ethyl]cyclopropanecarboxamide] | < 70
